Measurements: patent US5288709A, “Erythromycin derivatives” (priority 1991, dated 1994)
≈ marks a conversion by molar mass, not a printed value. Like-named read-outs stand apart in the source and are kept apart here.

How the values were obtained:
[1] = tested on: Staphylococcus aureus CMX 553; assay: In-vitro antimicrobial activity primary screen (agar dilution MIC); assay type: cell-based; details: BHI agar, 20-24 h
Procedure, shortened: (§1)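 Agar dilution in Brain Heart Infusion agar with twelve successive compound dilutions; plates inoculated with 1:100 diluted cultures by replicator and incubated 20-24 h at 35-37 °C. MIC is the lowest concentration giving no growth, slight haze or sparse isolated colonies versus compound-free control; erythromycin A plate run as reference.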

[2] = tested on: Staphylococcus aureus CMX 503A; assay: as above; assay type: cell-based; details: BHI agar, 20-24 h
Procedure, shortened: as §1

[3] = tested on: Staphylococcus aureus CMX 686B; assay: as above; assay type: cell-based; details: CMX686B, BHI agar, 20-24 h, read-out: MIC
Procedure, shortened: as §1

[4] = tested on: Pseudomonas aeruginosa K799/61; assay: as above; assay type: cell-based
Procedure, shortened: (§2)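 Minimum inhibitory concentrations come from twelve-step agar dilution in BHI medium. Strains, diluted 1:100 or 1:10 if slow-growing, were replicator-plated and incubated 20-24 h, 35-37° C; haze or sparse colonies counted as inhibition.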

[5] = tested on: Staphylococcus aureus ATCC 6538P; assay: as above; assay type: cell-based; details: BHI agar, 20-24 h
Procedure, shortened: as §2

[6] = tested on: Providencia stuartii CMX 640; assay: as above; assay type: cell-based; details: Providencia stuartii, CMX640, 24 h
Procedure, shortened: as §2

[7] = tested on: Pseudomonas aeruginosa K799/WT; assay: as above; assay type: cell-based; details: Pseudomonas aeruginosa, K799/WT, 24 h
Procedure, shortened: as §2

[8] = tested on: Streptococcus pyrogenes EES61; assay: as above; assay type: cell-based; details: BHI agar, 20-24 h
Procedure, shortened: as §2

[9] = tested on: Pseudomonas cepacia 2961; assay: as above; assay type: cell-based; details: BHI agar, 20-24 h
Procedure, shortened: as §2

[10] = tested on: Micrococcus luteus ATCC 9341; assay: as above; assay type: cell-based; details: BHI agar, 20-24 h
Procedure, shortened: as §2

[11] = tested on: Escherichia coli H560; assay: as above; assay type: cell-based; details: Escherichia coli, H560, 24 h, Escherichia coli H560; BHI agar, 20-24 h
Procedure, shortened: as §2

[12] = tested on: Micrococcus luteus ATCC 4698; assay: as above; assay type: cell-based; details: 20-24 h
Procedure, shortened: as §2

[13] = tested on: Enterobacter aerogenes ATCC 13048; assay: as above; assay type: cell-based; details: Klebsiella aerogenes, ATCC13048, 24 h
Procedure, shortened: as §2

[14] = tested on: Acinetobacter SP CMX 669; assay: as above; assay type: cell-based; details: Acinetobacter SP CMX 669, BHI agar, 20-24 h
Procedure, shortened: as §2

[15] = tested on: Streptococcus pyrogenes 2548 INDUC; assay: as above; assay type: cell-based; details: BHI agar, 20-24 h
Procedure, shortened: as §2

[16] = tested on: Escherichia coli DC-2; assay: as above; assay type: cell-based; details: Escherichia coli DC-2, BHI agar, 20-24 h
Procedure, shortened: as §2

[17] = tested on: Pseudomonas aeruginosa A5007; assay: as above; assay type: cell-based; details: Pseudomonas aeruginosa, A5007, 24 h
Procedure, shortened: as §2

[18] = tested on: Enterococcus faecium ATCC 8043; assay: as above; assay type: cell-based
Procedure, shortened: as §2

[19] = tested on: Klebsiella pneumoniae ATCC 8045; assay: as above; assay type: cell-based; details: Klebsiella pneumoniae, ATCC8045, 24 h
Procedure, shortened: as §2

[20] = tested on: Streptococcus bovis A5169; assay: as above; assay type: cell-based; details: Streptococcus equinus, BHI agar, 20-24 h
Procedure, shortened: as §2

[21] = tested on: Escherichia coli JUHL; assay: as above; assay type: cell-based; details: Escherichia coli, 24 h, Escherichia coli JUHL; BHI agar, 20-24 h
Procedure, shortened: as §2

[22] = tested on: Escherichia coli SS; assay: as above; assay type: cell-based; details: BHI agar, 20-24 h
Procedure, shortened: as §2

[23] = tested on: Staphylococcus epidermidis 3519; assay: as above; assay type: cell-based; details: BHI agar, 20-24 h
Procedure, shortened: as §2

[24] = tested on: Staphylococcus aureus 45 RAR2; assay: as above; assay type: cell-based; details: Staphylococcus aureus, 45RAR2, 24 h, BHI agar, 20-24 h
Procedure, shortened: as §2

[25] = tested on: Staphylococcus aureus A5177; assay: as above; assay type: cell-based; details: Staphylococcus aureus, A5177, 24 h, Staphylococcus aureus A5177; BHI agar, 20-24 h
Procedure, shortened: as §2

[26] = tested on: Staphylococcus aureus 45; assay: as above; assay type: cell-based; details: BHI agar, 20-24 h, read-out: MIC
Procedure, shortened: as §2

[27] = tested on: Streptococcus agalactiae CMX 508; assay: as above; assay type: cell-based; details: 20-24 h
Procedure, shortened: as §2

[28] = tested on: Pseudomonas aeruginosa BMH10; assay: as above; assay type: cell-based; details: Pseudomonas aeruginosa, BMH10, 24 h, BHI agar, 20-24 h
Procedure, shortened: as §2

[29] = tested on: Streptococcus pyogenes C-203; assay: In-vivo acute mouse protection assay; set-up: species or system Streptococcus pyogenes; female Swiss albino mice; details: dosed 1 and 5 h post-infection, observed 7 days
Experimental: An acute mouse protection test was conducted on ten mice with each of three concentrations of selected compounds of the invention. Each concentration was a four-fold dilution of the previous concentration. The initial concentration will vary with the microorganism with which the mouse is challenged.
The acute mouse protection test was conducted on female, Swiss albino mice, 18-20 grams in weight. […] To check the potency of the inoculum, a titration of the indicated test organism was carried out in control animals. The titration determines the LD50 for a particular microorganism. The treatment groups of animals were dosed orally, by gavage, or subcutaneously with the test compounds at 1 and 5 hours post-infection and observed for 7 days. The ED50 were calculated using the mortality data collected.

[30] = Staphylococcus aureus, CMX553, 24 h, read-out: MIC
[31] = Staphylococcus aureus, CMX503A, 24 h, read-out: MIC
[32] = Staphylococcus aureus, ATCC6538P, 24 h
[33] = Burkholderia cepacia, 2961, 24 h
[34] = Micrococcus luteus, ATCC4698, 24 h, BHI agar
[35] = Enterococcus faecium, ATCC8043, 24 h
[36] = Micrococcus luteus, ATCC9341, 24 h

Row | SMILES | MIC [1, 30] [mg/L] | MIC [2, 31] [mg/L] | MIC [3] [mg/L] | MIC [5, 32] [mg/L] | MIC [6] [mg/L] | MIC [7] [mg/L] | MIC [9, 33] [mg/L] | MIC [11] [mg/L] | MIC [12, 34] [mg/L] | MIC [13] [mg/L] | MIC ([14]; Acinetobacter, SPCMX669, 24 h) [mg/L] | MIC ([15]; Streptococcus, 2548INDUC, 24 h) [mg/L] | MIC [17] [mg/L] | MIC [18, 35] [mg/L] | MIC ([20]; A5169, 24 h) [mg/L] | MIC [21] [mg/L] | MIC ([22]; Escherichia coli, 24 h) [mg/L] | MIC ([8]; read-out: MIC) [mg/L] | MIC [24] [mg/L] | MIC [25] [mg/L] | further results
1 | CC[C@H]1OC(=O)[C@H](C)[C@@H](O[C@H]2C[C@@](C)(OC)[C@@H](O)[C@H](C)O2)[C@H](C)[C@@H](O[C@@H]2O[C@H](C)C[C@H](N(C)C)[C@H]2O)[C@](C)(O)C[C@@H](C)C(=O)[C@H](C)[C@@H](O)[C@]1(C)O [Std, Erythromycin A, reference compound] | 0.2 (≈ 0.273 µM) | 0.2 (≈ 0.273 µM) | 0.2 (≈ 0.273 µM) | 0.2 (≈ 0.273 µM) | > 100 | 100 (≈ 136 µM) | > 100 | 25 (≈ 34.1 µM) | 0.1 (≈ 0.136 µM) | 100 (≈ 136 µM) | 6.2 (≈ 8.45 µM) | 3.1 (≈ 4.22 µM) | > 100 | 0.05 (≈ 0.0681 µM) | 0.02 (≈ 0.0273 µM) | 25 (≈ 34.1 µM) | 0.2 (≈ 0.273 µM) |  |  |  | MIC [1]: 0.1 microgram/mL; MIC [2]: 0.1 microgram/mL; MIC ([4]; Pseudomonas aeruginosa K799/61, BHI agar, 20-24 h): 1.56 microgram/mL; MIC ([4]; Pseudomonas aeruginosa, K799/61, 24 h): 0.78 mg/L (≈ 1.06 µM); MIC [5]: 0.1 microgram/mL; MIC ([8]; Streptococcus, EES61, 24 h): 0.02 mg/L (≈ 0.0273 µM); MIC [9]: 100 microgram/mL; MIC [10]: 0.02 microgram/mL; MIC ([12]; BHI agar): 0.2 microgram/mL; MIC [14]: 3.1 microgram/mL; MIC [15]: 1.56 microgram/mL; MIC [16]: 25 microgram/mL; MIC [19]: 100 mg/L (≈ 136 µM); MIC [22]: 0.39 microgram/mL; MIC [23]: 0.1 microgram/mL; MIC ([23]; Staphylococcus epidermidis, 3519, 24 h): 0.2 mg/L (≈ 0.273 µM)
2 | CC[C@H]1OC(=O)[C@H](C)[C@@H](O[C@H]2C[C@@](C)(OC)[C@H](N)[C@H](C)O2)[C@H](C)[C@@H](O[C@@H]2O[C@H](C)C[C@H](N(C)C)[C@H]2O)[C@](C)(O)C[C@@H](C)[C@@H]2O[C@@]1(C)[C@@H](O)[C@H]2C [Example 13, (4"R,9S,11S) 4"-Amino-9-deoxo-4",12-dideoxy-9,12-epoxyerythromycin A] | 0.2 (≈ 0.279 µM) | 0.2 (≈ 0.279 µM) | 0.2 (≈ 0.279 µM) | 0.2 (≈ 0.279 µM) | > 100 | 100 (≈ 139 µM) | > 100 | 12.5 (≈ 17.4 µM) |  | 100 (≈ 139 µM) |  |  | > 100 |  |  | 50 (≈ 69.7 µM) | 0.2 (≈ 0.279 µM) | < 0.005 | 0.2 (≈ 0.279 µM) | 0.78 (≈ 1.09 µM) | MIC ([4]; Pseudomonas aeruginosa, K799/61, 24 h, Pseudomonas aeruginosa K799/61, BHI agar, 20-24 h): 1.56 mg/L (≈ 2.18 µM); MIC [10, 36]: 0.01 mg/L (≈ 0.0139 µM); MIC ([12]; ATCC4698, BHI agar, read-out: MIC): 0.05 mg/L (≈ 0.0697 µM); MIC [26]: 0.2 mg/L (≈ 0.279 µM); MIC ([15]; read-out: MIC): 0.78 mg/L (≈ 1.09 µM); MIC ([16]; Escherichia coli, DC2, 24 h): 50 mg/L (≈ 69.7 µM); MIC ([27]; CMX508, BHI agar, read-out: MIC): 0.02 mg/L (≈ 0.0279 µM); MIC ([18]; ATCC8043, Enterococcus faecium ATCC 8043, BHI agar, 20-24 h, read-out: MIC): 0.05 mg/L (≈ 0.0697 µM); MIC [28]: 100 mg/L (≈ 139 µM); MIC ([20]; read-out: MIC): 0.01 mg/L (≈ 0.0139 µM); MIC ([23]; read-out: MIC): 0.2 mg/L (≈ 0.279 µM); ED50 ([29]; C203, 168 h, oral): 51.5 mg/kg; ED50 ([29]; C203, sc, 168 h, subcutaneous): 9.3 mg/kg
3 | CC[C@H]1OC(=O)[C@H](C)[C@@H](O[C@H]2C[C@@](C)(OC)[C@@H](O)[C@H](C)O2)[C@H](C)[C@@H](O[C@@H]2O[C@H](C)C[C@H](N(C)C)[C@H]2O)[C@](C)(O)C[C@@H](C)[C@@H]2O[C@@]1(C)[C@@H](O)[C@H]2C [Example 4, (9S,11S)-9-Deoxo-12-deoxy-9,12-epoxyerythromycin A] | 0.2 (≈ 0.279 µM) | 0.2 (≈ 0.279 µM) | 0.2 (≈ 0.279 µM) | 0.2 (≈ 0.279 µM) | > 100 |  | > 100 | 25 (≈ 34.8 µM) | 0.1 (≈ 0.139 µM) |  | 3.1 (≈ 4.32 µM) | 3.1 (≈ 4.32 µM) | > 100 | 0.1 (≈ 0.139 µM) | 0.02 (≈ 0.0279 µM) | 25 (≈ 34.8 µM) | 0.2 (≈ 0.279 µM) | 0.01 (≈ 0.0139 µM) | 0.39 (≈ 0.543 µM) | 3.1 (≈ 4.32 µM) | MIC ([4]; Pseudomonas aeruginosa K799/61, BHI agar, 20-24 h, read-out: MIC): 0.39 mg/L (≈ 0.543 µM); MIC ([7]; Pseudomonas aeruginosa K799/WT, BHI agar, 20-24 h): 100 mg/L (≈ 139 µM); MIC [10, 36]: 0.05 mg/L (≈ 0.0696 µM); MIC ([13]; Enterobacter aerogenes ATCC 13048, BHI agar, 20-24 h): 50 mg/L (≈ 69.6 µM); MIC [26]: 0.2 mg/L (≈ 0.279 µM); MIC ([16]; Escherichia coli, DC2, 24 h): 50 mg/L (≈ 69.6 µM); MIC ([27]; Streptococcus agalactiae, CMX508, 24 h, BHI agar): 0.05 mg/L (≈ 0.0696 µM); MIC [28]: 50 mg/L (≈ 69.6 µM); MIC ([23]; read-out: MIC): 0.2 mg/L (≈ 0.279 µM); ED50 ([29]; C203, 168 h, oral): 20 mg/kg; ED50 ([29]; C203, sc, 168 h, subcutaneous): 3.3 mg/kg
